Measured values from ChEMBL document CHEMBL1201862, “PubChem BioAssay data set” (2004).
Each block holds one compound with its values, some of them ahead of it. Calls of active or inactive are those of the source.

Assays:
[1] = inhibitors of firefly luciferase expression or activity, dose response, H4 neuroglioma cells, luminescence (AID 1990); type: functional, cell-based
[2] = NIH-3T3 fibroblast cytotoxicity, dose response, cytotoxicity control, cell-based, fluorescence, Alamar Blue, secondary assay (AID 2327); type: functional;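 note: NIH-3T3 mouse fibroblasts cultured with fluconazole at 8 µg/mL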
[3] = target: Serine/threonine-protein kinase TAO1 (Homo sapiens, UniProt Q7L7X3); type: functional
[4] = target: Mitogen-activated protein kinase kinase kinase kinase 4 (Homo sapiens, UniProt O95819); type: functional
[5] = target: Inhibitor of nuclear factor kappa-B kinase subunit epsilon (Homo sapiens, UniProt Q14164); experiment: Navigating the Kinome. Panel member name: IKBKE; type: functional
Sequence of Inhibitor of nuclear factor kappa-B kinase subunit epsilon (Q14164 whole entry): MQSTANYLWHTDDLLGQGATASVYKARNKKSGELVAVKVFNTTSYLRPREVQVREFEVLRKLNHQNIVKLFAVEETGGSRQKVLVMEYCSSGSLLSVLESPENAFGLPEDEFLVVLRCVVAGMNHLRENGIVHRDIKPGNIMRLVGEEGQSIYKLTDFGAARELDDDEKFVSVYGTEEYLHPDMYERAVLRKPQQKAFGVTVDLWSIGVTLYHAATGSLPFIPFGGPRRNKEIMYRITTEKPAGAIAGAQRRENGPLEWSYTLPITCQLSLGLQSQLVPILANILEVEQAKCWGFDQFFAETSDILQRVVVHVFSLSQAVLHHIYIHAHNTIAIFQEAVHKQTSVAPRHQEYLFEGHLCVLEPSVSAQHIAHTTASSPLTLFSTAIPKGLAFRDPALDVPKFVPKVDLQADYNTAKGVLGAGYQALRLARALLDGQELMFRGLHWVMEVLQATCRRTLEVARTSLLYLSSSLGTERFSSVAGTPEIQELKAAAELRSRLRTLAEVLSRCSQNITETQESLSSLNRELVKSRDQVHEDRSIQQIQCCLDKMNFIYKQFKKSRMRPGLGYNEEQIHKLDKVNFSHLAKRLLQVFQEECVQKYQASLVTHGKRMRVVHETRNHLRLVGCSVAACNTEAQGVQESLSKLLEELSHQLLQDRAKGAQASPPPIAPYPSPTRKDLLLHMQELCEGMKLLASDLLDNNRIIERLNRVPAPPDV

[6] = target: Ribosomal protein S6 kinase alpha-3 (Homo sapiens, UniProt P51812); type: functional;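 note: measured within a kinome-wide profiling panel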
Sequence of Ribosomal protein S6 kinase alpha-3 (P51812 whole entry): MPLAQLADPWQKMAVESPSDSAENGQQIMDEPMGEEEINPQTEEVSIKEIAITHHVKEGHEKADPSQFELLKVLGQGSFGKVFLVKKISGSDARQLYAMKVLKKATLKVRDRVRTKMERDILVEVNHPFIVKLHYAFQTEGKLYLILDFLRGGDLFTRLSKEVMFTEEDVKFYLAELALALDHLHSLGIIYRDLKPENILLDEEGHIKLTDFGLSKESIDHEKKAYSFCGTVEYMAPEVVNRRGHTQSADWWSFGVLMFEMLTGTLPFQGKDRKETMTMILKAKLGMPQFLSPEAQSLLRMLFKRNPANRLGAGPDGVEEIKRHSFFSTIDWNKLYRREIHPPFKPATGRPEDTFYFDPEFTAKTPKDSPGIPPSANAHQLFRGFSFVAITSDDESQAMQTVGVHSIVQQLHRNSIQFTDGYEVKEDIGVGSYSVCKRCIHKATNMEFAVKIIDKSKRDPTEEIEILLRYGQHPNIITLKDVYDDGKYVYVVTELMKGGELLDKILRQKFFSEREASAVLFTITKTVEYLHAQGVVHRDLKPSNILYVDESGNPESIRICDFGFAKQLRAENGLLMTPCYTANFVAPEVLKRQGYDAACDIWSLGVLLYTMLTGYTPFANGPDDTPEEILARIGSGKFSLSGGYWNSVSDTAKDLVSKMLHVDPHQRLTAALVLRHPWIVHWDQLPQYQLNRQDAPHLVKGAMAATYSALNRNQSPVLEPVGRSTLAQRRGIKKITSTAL

[7] = target: Insulin-like growth factor 1 receptor (Homo sapiens, UniProt P08069); experiment: Navigating the Kinome. Panel member name: IGF1R; type: functional
Sequence of Insulin-like growth factor 1 receptor (P08069 31-736 limits assumed): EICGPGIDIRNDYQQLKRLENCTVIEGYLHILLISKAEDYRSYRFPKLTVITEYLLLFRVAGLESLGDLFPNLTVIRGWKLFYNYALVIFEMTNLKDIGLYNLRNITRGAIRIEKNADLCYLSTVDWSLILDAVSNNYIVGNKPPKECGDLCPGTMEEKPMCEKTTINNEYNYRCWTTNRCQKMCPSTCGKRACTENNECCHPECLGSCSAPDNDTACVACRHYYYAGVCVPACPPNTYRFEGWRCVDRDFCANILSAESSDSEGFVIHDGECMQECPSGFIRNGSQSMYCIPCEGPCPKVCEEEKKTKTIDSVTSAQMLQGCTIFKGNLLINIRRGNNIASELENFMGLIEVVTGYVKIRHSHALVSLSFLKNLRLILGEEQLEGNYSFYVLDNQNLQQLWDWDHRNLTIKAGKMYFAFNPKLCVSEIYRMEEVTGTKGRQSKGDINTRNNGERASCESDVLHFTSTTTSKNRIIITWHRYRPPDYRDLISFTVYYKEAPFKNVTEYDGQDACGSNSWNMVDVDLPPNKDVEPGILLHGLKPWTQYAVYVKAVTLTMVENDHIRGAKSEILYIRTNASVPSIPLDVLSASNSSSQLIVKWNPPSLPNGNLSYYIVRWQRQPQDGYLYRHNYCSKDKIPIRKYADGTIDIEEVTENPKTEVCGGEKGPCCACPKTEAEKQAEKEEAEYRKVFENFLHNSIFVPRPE
Sequence of Insulin-like growth factor 1 receptor (P08069 741-1367 limits assumed): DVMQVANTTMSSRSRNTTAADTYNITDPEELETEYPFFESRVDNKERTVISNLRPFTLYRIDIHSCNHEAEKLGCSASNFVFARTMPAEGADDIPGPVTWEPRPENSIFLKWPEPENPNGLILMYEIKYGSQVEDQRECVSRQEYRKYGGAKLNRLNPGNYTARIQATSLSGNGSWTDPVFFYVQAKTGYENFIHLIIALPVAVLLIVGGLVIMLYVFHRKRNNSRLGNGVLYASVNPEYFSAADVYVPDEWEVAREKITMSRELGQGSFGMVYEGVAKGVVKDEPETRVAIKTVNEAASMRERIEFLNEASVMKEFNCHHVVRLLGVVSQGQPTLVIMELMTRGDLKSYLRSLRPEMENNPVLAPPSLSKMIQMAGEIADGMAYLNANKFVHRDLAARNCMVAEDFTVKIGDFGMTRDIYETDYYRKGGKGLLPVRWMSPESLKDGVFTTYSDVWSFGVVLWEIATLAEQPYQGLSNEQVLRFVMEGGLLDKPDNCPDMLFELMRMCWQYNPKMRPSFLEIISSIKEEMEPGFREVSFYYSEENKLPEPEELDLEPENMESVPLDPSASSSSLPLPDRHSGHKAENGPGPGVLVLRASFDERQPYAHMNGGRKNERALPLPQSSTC

[8] = target: Mitogen-activated protein kinase kinase kinase kinase 2 (Homo sapiens, UniProt Q12851); type: functional;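 note: measured as one member of a kinome-wide kinase panel, with MAP4K2 as the panel entry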
Sequence of Mitogen-activated protein kinase kinase kinase kinase 2 (Q12851 whole entry, canonical isoform): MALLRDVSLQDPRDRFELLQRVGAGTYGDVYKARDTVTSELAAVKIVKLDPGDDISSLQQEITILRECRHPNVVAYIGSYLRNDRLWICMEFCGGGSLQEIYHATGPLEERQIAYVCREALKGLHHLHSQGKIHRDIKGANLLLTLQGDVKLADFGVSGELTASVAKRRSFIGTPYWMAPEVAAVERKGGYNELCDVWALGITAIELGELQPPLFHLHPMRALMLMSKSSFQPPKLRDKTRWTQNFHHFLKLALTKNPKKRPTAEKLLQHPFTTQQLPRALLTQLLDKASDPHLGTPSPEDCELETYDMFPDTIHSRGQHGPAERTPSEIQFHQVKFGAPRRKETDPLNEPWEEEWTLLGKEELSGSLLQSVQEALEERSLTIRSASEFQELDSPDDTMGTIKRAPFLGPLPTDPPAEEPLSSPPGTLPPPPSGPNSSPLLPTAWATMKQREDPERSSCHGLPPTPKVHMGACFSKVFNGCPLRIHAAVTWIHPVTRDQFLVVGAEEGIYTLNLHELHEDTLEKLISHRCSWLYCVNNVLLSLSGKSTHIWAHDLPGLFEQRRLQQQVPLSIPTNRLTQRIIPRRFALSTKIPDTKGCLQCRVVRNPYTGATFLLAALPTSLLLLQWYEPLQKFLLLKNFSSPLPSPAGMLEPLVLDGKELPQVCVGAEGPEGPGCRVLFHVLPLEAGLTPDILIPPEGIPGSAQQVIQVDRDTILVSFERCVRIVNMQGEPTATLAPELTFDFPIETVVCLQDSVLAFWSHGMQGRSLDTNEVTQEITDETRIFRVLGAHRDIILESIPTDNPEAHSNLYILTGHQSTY

[9] = target: Casein kinase I isoform alpha (Homo sapiens, UniProt P48729); type: functional
[10] = target: 5'-AMP-activated protein kinase catalytic subunit alpha-1 (Homo sapiens, UniProt Q13131); type: functional
LIM domain kinase 1 = LIM domain kinase 1 (Homo sapiens, UniProt P53667); experiment: Navigating the Kinome. Panel member name: LIMK1; type: functional
Sequence of LIM domain kinase 1 (P53667 whole entry, the tested form may be a part): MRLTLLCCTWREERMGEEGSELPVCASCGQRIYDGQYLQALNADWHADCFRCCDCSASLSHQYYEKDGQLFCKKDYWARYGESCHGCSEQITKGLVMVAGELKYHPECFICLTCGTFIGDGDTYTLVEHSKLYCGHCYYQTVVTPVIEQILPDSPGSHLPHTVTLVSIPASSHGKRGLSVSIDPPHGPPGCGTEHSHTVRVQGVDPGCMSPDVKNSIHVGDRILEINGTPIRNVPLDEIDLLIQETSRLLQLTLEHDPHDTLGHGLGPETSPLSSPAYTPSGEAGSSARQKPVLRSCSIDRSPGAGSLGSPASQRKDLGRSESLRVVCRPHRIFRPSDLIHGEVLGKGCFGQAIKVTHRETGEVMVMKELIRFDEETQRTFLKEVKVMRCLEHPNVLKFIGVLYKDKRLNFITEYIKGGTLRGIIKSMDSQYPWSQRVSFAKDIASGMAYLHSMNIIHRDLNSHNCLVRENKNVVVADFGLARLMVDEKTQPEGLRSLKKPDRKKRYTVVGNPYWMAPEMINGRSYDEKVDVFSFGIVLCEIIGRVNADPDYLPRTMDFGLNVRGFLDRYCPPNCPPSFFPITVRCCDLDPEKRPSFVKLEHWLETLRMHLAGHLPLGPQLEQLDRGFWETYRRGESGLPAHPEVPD

[11] = target: cAMP-dependent protein kinase catalytic subunit alpha (Homo sapiens, UniProt P17612); type: functional
[12] = target: Tyrosine-protein kinase JAK3 (Homo sapiens, UniProt P52333); type: functional
[13] = target: T1, Sentrin-specific protease 7 (Homo sapiens, UniProt Q9BQF6); type: functional;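 note: Luminescence-based dose-response confirmation of ultra-high-throughput screening hits, measuring inhibition of SENP7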
T1 sequence (Q9BQF6 whole entry): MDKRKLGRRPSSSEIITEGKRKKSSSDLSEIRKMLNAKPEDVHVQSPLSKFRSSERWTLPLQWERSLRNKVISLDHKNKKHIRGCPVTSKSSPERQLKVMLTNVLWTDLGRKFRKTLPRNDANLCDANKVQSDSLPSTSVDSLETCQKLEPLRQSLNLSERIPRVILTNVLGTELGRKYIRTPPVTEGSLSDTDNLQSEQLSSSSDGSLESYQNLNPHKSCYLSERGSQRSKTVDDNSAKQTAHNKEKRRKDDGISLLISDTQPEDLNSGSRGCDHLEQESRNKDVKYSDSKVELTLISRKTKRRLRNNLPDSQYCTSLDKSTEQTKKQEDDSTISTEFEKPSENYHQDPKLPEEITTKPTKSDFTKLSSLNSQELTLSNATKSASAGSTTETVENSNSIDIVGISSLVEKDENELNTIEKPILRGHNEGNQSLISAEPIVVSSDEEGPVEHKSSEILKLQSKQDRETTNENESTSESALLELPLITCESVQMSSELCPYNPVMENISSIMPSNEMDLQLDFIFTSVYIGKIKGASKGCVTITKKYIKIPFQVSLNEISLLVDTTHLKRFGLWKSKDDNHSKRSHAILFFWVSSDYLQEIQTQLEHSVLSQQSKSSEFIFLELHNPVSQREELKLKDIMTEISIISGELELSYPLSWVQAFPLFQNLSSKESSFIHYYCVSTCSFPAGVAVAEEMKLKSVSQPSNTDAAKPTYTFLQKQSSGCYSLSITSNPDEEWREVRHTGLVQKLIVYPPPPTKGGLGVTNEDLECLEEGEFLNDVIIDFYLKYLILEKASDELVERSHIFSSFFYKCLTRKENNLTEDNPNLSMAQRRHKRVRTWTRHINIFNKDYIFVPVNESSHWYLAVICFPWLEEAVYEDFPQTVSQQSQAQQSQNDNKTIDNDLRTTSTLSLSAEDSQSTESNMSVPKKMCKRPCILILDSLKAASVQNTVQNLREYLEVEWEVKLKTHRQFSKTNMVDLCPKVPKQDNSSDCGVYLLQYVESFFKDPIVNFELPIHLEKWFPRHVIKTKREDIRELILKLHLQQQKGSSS

[14] = target: Luciferin 4-monooxygenase (Photinus pyralis, UniProt P08659); experiment: Counter Screen for Luciferase-based Assay Positives. [Related pubchem assays: 620, 618, 411 ]
Sequence of Luciferin 4-monooxygenase (P08659 whole entry): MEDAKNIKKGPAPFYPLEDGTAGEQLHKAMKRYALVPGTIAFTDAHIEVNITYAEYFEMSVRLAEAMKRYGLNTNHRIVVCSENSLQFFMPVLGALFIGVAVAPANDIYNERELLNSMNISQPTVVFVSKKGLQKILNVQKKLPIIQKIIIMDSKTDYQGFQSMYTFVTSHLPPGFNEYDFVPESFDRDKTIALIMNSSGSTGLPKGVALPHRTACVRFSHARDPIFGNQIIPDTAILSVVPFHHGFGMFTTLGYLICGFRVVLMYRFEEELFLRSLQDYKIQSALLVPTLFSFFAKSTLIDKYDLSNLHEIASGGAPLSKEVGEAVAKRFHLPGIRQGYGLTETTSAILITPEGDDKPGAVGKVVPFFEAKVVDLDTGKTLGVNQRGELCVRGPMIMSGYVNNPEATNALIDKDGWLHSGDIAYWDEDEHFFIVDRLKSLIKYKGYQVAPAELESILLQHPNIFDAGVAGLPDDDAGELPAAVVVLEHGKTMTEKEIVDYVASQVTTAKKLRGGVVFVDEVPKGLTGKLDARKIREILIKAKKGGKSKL

[15] = target: T2, Sentrin-specific protease 6 (Homo sapiens, UniProt Q9GZR1); type: functional;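 note: Luminescence-based dose-response confirmatory assay of SENP6 inhibition, following up an ultra-high-throughput screen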
T2 sequence (Q9GZR1 whole entry): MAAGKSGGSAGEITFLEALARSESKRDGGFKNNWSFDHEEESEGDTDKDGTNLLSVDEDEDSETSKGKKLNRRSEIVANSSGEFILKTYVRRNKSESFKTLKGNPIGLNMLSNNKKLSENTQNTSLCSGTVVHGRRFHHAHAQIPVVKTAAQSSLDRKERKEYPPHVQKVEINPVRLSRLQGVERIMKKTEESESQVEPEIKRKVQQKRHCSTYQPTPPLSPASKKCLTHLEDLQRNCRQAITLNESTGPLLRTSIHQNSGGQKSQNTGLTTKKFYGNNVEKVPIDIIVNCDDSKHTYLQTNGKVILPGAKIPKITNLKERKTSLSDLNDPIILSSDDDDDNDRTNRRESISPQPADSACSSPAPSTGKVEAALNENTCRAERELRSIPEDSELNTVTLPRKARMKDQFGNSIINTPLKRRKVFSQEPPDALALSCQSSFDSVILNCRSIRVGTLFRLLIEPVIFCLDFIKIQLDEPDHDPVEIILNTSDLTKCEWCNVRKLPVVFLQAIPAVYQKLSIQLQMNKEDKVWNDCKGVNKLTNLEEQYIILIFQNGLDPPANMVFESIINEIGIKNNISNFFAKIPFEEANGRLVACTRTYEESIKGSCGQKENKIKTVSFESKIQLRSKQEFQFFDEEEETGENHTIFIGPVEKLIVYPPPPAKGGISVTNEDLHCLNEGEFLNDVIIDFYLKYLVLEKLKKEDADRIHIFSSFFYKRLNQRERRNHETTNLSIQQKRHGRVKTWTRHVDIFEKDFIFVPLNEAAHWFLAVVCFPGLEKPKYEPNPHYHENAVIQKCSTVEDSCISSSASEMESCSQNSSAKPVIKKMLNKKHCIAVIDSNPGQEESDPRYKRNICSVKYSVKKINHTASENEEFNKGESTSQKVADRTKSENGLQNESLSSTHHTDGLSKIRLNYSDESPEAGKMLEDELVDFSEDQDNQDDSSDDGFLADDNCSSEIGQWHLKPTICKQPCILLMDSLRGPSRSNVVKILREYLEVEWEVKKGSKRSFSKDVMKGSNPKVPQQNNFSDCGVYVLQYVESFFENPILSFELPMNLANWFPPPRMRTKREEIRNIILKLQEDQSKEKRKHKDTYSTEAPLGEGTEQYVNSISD

Structure (SMILES): CN1CCN(C(c2ccc(C(F)(F)F)cc2)c2cc(Cl)c3cccnc3c2O)CC1 (stereo unspecified)
EC50 [1]: 10.5 µM (active)
EC50 [2]: 10.9 µM (inconclusive)

Ki [3]: > 6.31 µM (inactive)
Ki [4]: > 5.01 µM (inactive)
Ki [5]: > 3.16 µM (inactive)
Ki [6]: > 3.98 µM (inactive)
Ki [7]: > 2.51 µM (inactive)
Ki [8]: > 2.51 µM (inactive)
Ki [9]: > 3.98 µM (inactive)
Ki [10]: > 3.16 µM (inactive)
Ki (LIM domain kinase 1): > 3.16 µM (inactive)
Ki [11]: 31.6 nM (active)
Ki [12]: > 5.01 µM (inactive)
Structure (SMILES): O=C(NC(CCO)c1ccccc1)c1ccc(-c2ccncc2)cc1 (stereo unspecified)

Structure (SMILES): NC(=O)c1c(NC(=O)c2cc3ccccc3o2)sc2c1CCC2
IC50 [13]: 3.74 µM (active)
EC50 [14]: 1.7 µM (active)
IC50 [15]: 17.2 µM (active)
